From PubChem BioAssay (NCI)
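Cells were grown in 96-well plates and exposed to each compound for 48 hours at five concentrations; endpoints were interpolated linearly between bracketing concentrations, or set to the highest concentration if not reached. TGI is the concentration that stops growth completely.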

Experiments:
Test in all cases: NCI tumour cell line growth inhibition, 48 h
786-0 renal = test system: 786-0 renal
A498 renal = test system: A498 renal
A549 NSCLC = test system: A549 NSCLC
ACHN renal = test system: ACHN renal
BT-549 breast = test system: BT-549 breast
CAKI-1 renal = test system: CAKI-1 renal
CCRF-CEM leukemia = test system: CCRF-CEM leukemia
COLO 205 colon = test system: COLO 205 colon
DU-145 prostate = test system: DU-145 prostate
EKVX NSCLC = test system: EKVX NSCLC
HCC-2998 colon = test system: HCC-2998 colon
HCT-116 colon = test system: HCT-116 colon
HCT-15 colon = test system: HCT-15 colon
HL-60(TB) leukemia = test system: HL-60(TB) leukemia
HOP-92 NSCLC = test system: HOP-92 NSCLC
HS 578T breast = test system: HS 578T breast
HT29 colon = test system: HT29 colon
IGROV1 ovarian = test system: IGROV1 ovarian
K-562 leukemia = test system: K-562 leukemia
KM12 colon = test system: KM12 colon
LOX IMVI melanoma = test system: LOX IMVI melanoma
M14 melanoma = test system: M14 melanoma
MCF7 breast = test system: MCF7 breast
MDA-MB-231 breast = test system: MDA-MB-231 breast
MDA-MB-435 = test system: MDA-MB-435
MDA-N = test system: MDA-N
MOLT-4 leukemia = test system: MOLT-4 leukemia
NCI-H226 lung = test system: NCI-H226 lung
NCI-H23 lung = test system: NCI-H23 lung
NCI-H460 lung = test system: NCI-H460 lung
NCI-H522 lung = test system: NCI-H522 lung
NCI/ADR-RES ovarian = test system: NCI/ADR-RES ovarian
OVCAR-3 ovarian = test system: OVCAR-3 ovarian
OVCAR-4 ovarian = test system: OVCAR-4 ovarian
OVCAR-5 ovarian = test system: OVCAR-5 ovarian
OVCAR-8 ovarian = test system: OVCAR-8 ovarian
PC-3 prostate = test system: PC-3 prostate
RPMI-8226 leukemia = test system: RPMI-8226 leukemia
RXF 393 renal = test system: RXF 393 renal
SF-268 CNS = test system: SF-268 CNS
SF-295 CNS = test system: SF-295 CNS
SF-539 CNS = test system: SF-539 CNS
SK-MEL-2 melanoma = test system: SK-MEL-2 melanoma
SK-MEL-28 melanoma = test system: SK-MEL-28 melanoma
SK-MEL-5 melanoma = test system: SK-MEL-5 melanoma
SK-OV-3 ovarian = test system: SK-OV-3 ovarian
SN12C renal = test system: SN12C renal
SNB-19 CNS = test system: SNB-19 CNS
SNB-75 CNS = test system: SNB-75 CNS
SR leukemia = test system: SR leukemia
SW-620 colon = test system: SW-620 colon
T-47D breast = test system: T-47D breast
TK-10 renal = test system: TK-10 renal
U251 CNS = test system: U251 CNS
UACC-257 melanoma = test system: UACC-257 melanoma
UACC-62 melanoma = test system: UACC-62 melanoma
UO-31 renal = test system: UO-31 renal
HOP-62 NSCLC = test system: HOP-62 NSCLC
MALME-3M melanoma = test system: MALME-3M melanoma

Measured: TGI

CC(=O)OC1OC(c2ccoc2)C[C@@]12C1CCC3O[C@]3(C)[C@]1(C)C[C@H](OC(C)=O)[C@H]2C (stereo not given in full)
not listed: HOP-62 NSCLC | MALME-3M melanoma
> 75 µM: all other assays above

C/C(=C1\C(=O)C(c2ccccc2)N(c2ccccc2)C1=O)c1ccc(Cl)cc1 (stereo not given)
72.3 µM: SW-620 colon
52.5 µM: TK-10 renal
42.3 µM: M14 melanoma
32.7 µM: SNB-19 CNS
40.9 µM: HS 578T breast
31.9 µM: NCI-H23 lung
43 µM: NCI-H226 lung
84.5 µM: HOP-62 NSCLC
31.2 µM: HT29 colon | SK-MEL-28 melanoma
28.2 µM: PC-3 prostate
34 µM: DU-145 prostate
29.4 µM: U251 CNS
53.2 µM: SR leukemia
47 µM: SF-268 CNS
33.1 µM: A498 renal
45.4 µM: SK-MEL-2 melanoma
45.8 µM: UO-31 renal
40.5 µM: IGROV1 ovarian
74.9 µM: SF-295 CNS
> 100 µM: K-562 leukemia | MCF7 breast | MOLT-4 leukemia | NCI-H460 lung | NCI/ADR-RES ovarian
32.8 µM: COLO 205 colon | MDA-MB-435
57.6 µM: MDA-MB-231 breast
28.3 µM: SK-MEL-5 melanoma
43.6 µM: HCT-15 colon
79.6 µM: EKVX NSCLC
86 µM: SN12C renal
45.3 µM: T-47D breast
38.1 µM: RPMI-8226 leukemia
79.2 µM: RXF 393 renal
37.4 µM: MALME-3M melanoma
42.8 µM: OVCAR-4 ovarian
38.7 µM: NCI-H522 lung
49.2 µM: BT-549 breast
57.1 µM: KM12 colon
38.6 µM: 786-0 renal
45 µM: ACHN renal
96.1 µM: HCC-2998 colon
30.8 µM: SK-OV-3 ovarian | UACC-257 melanoma | UACC-62 melanoma
48 µM: MDA-N
69.1 µM: HL-60(TB) leukemia
36.3 µM: HCT-116 colon
13.6 µM: HOP-92 NSCLC
48.9 µM: SF-539 CNS
36.5 µM: A549 NSCLC
28.5 µM: LOX IMVI melanoma
30.6 µM: OVCAR-3 ovarian
48.4 µM: CAKI-1 renal

COc1cccc(C=C2N=C(C)N(n3c(-c4ccccc4)nc4ccccc4c3=O)C2=O)c1
not listed: HOP-92 NSCLC | NCI/ADR-RES ovarian | OVCAR-3 ovarian | OVCAR-4 ovarian | OVCAR-5 ovarian | RXF 393 renal | SK-MEL-2 melanoma | U251 CNS | MALME-3M melanoma
> 100 µM: all other assays above

COc1ccccc1/C=C/c1nc2ccccc2o1
not listed: HL-60(TB) leukemia | UO-31 renal
> 10 µM: all other assays above

NC(=O)C1CCCN1C(=O)N(CCCl)N=O (stereo not given)
72.8 µM: SNB-75 CNS
not listed: RXF 393 renal
> 100 µM: all other assays above

CC1CC(C(=O)OC2OC(COC3OC(CO)C(OC4OC(C)C(O)C(O)C4O)C(O)C3O)C(O)C(O)C2O)C2CCC3(C)C(=CCC4(C)C3CCC3C(C)(CO)C(O)C(O)CC34C)C2C1C (stereo not given)
37.3 µM: OVCAR-4 ovarian
> 10 µM: A498 renal | ACHN renal | EKVX NSCLC | UACC-257 melanoma
41.1 µM: HT29 colon
33.3 µM: NCI-H23 lung
52.2 µM: CCRF-CEM leukemia
58.8 µM: LOX IMVI melanoma
37 µM: SN12C renal
49.2 µM: RPMI-8226 leukemia
84.6 µM: PC-3 prostate
53 µM: MCF7 breast
88.3 µM: SW-620 colon
36.4 µM: MDA-N
37.8 µM: SF-268 CNS
40.8 µM: HCC-2998 colon
51.5 µM: 786-0 renal
42.2 µM: SK-MEL-2 melanoma
41.4 µM: MOLT-4 leukemia
37.2 µM: HOP-62 NSCLC
32 µM: SNB-19 CNS
32.3 µM: BT-549 breast | OVCAR-8 ovarian
66.7 µM: OVCAR-5 ovarian
30.1 µM: NCI-H522 lung
45.8 µM: HL-60(TB) leukemia
32.7 µM: COLO 205 colon | UACC-62 melanoma
33.5 µM: SK-MEL-28 melanoma | U251 CNS
66.6 µM: NCI-H460 lung
34.5 µM: MDA-MB-435
34 µM: MDA-MB-231 breast
33 µM: SK-MEL-5 melanoma
80.1 µM: NCI-H226 lung
82.8 µM: SF-295 CNS
32.5 µM: SNB-75 CNS
38 µM: SF-539 CNS
41.7 µM: HCT-116 colon
33.4 µM: KM12 colon
35.5 µM: HS 578T breast
41 µM: SR leukemia
33.2 µM: IGROV1 ovarian
35 µM: T-47D breast
34.6 µM: HOP-92 NSCLC
60.4 µM: OVCAR-3 ovarian
not listed: RXF 393 renal | MALME-3M melanoma
> 100 µM: all other assays above

Cc1nc2cccc([N+](=O)[O-])c2n1CCCN(C)C
not listed: HOP-92 NSCLC | MOLT-4 leukemia | SF-539 CNS
> 100 µM: all other assays above
